For the test, the target named is T1, rat A1 receptors (Rattus norvegicus, UniProt P25099).
T1 construct: to A1 receptors from rat cerebral cortical membranes; from tissue; host or cells: rat cerebral cortical membranes
T1 sequence (P25099 1-326): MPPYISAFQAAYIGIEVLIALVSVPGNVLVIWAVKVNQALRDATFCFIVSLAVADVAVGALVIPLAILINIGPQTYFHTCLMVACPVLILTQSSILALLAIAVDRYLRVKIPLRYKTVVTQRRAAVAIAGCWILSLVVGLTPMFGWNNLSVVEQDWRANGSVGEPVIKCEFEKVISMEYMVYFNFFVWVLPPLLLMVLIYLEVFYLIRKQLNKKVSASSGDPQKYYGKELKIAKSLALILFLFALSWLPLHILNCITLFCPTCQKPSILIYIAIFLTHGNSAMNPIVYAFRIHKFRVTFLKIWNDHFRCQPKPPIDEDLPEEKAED
As to the kind of experiment: Displacement of [3H]R-PIA binding to A1 receptors in rat brain membranes. To be noted: read-out: Ki rA1. The procedure: All nonradioactive compounds were initially dissolved in DMSO and diluted with buffer to the final concentration, where the amount of DMSO never exceeded 2%. Incubations were terminated by rapid filtration over Whatman GF/B filters using a Brandell cell harvester. The tubes were rinsed three times with 3 mL buffer each.
At least six different concentrations of competitor, spanning 3 orders of magnitude adjusted appropriately for the IC50 value of each compound, were used. IC50 values, calculated with the nonlinear regression method implemented in Graph-Pad Prism (San Diego, CA) were converted to apparent Ki values as described by [Linden [1982]]. Hill coefficients of the tested compounds were in the range of 0.8–1.1.
At A2B receptors, two radioligand binding assays (Table 1) were used. Ki values of xanthine derivatives were determined in displacement of binding of the non-selective radioligands […], 8 (4-(2-[7-amino-2-{furyl}{1,2,4}triazolo{2,3-a}{1,3,5}tr nzyl)-8-phenyloxyacetate-1-propyl-xanthine), at human A2B receptors expressed in HEK-293 cell membranes [[Linden and Jacobson, 1998]]. In order to evaluate selectivity, selected derivatives were subjected to standard binding assays at A1, A2A, and A3 receptors. The initial screening utilized rat brain A1/A2A receptors (with radioligands [^3H]R-PIA and [^3H]CGS-21680), and selected compounds were examined at the recombinant human subtypes (Table 1), using [^3H]CPX ([^3H]8-cyclopentyl-1,3-dipropylxanthine) and ^125I-ZM 241385, ^125I-4-(2-[7-amino-2-[2-furyl][1,2,4]triazolo[2,3-a][1,3,5]triazin-5-yl-amino]ethyl)phenol) [[Palmer et al., 1996]].
In general terms: Loss of bound radioactivity is the signal in a displacement assay; it reports binding, not function.

Regarding `CCCn1c(=O)c2[nH]c(-c3ccc(OCC(=O)NNC(C)=O)cc3)nc2n(CCC)c1=O` [Compound 4e, 8-[4-[(Carboxymethyl)oxy]phenyl]-1,3-di-(n-propyl)xanthine N-Acetylhydrazide], the Ki (in general, a dissociation constant, usually derived from enzyme kinetics or from competition with a known ligand) is 6.51 ± 1.24 nM.
Next, `CCCn1c(=O)c2[nH]c(-c3ccc(OCC(=O)NNC(=O)CCC(=O)O)cc3)nc2n(CCC)c1=O` [Compound 9, 8-[4-[(Carboxymethyl)oxy]phenyl]-1,3-di-(n-propyl)xanthine N-[(3-Carboxy)-n-propionyl]hydrazide]: 73.3 ± 22 nM; `CCCn1c(=O)c2[nH]c(-c3ccc(OCC(=O)NN4C(=O)C(C)=C(C)C4=O)cc3)nc2n(CCC)c1=O` [Compound 14, 8-[4-[(Carboxymethyl)oxy]phenyl]-1,3-di-(n-propyl)xanthine N,N-[(1,2-Dimethyl)maleyl]hydrazide]: 11.1 ± 2.4 nM.
Next, `CCCn1c(=O)[nH]c(=O)c2[nH]c(-c3ccc(OCC(=O)NN4C(=O)C(C)=C(C)C4=O)cc3)nc21` [Compound 15, 8-[4-[(Carboxymethyl)oxy]phenyl]-1H-3-(n-propyl)xanthine N,N-[(1,2-Dimethyl)maleyl]hydrazide]: 3590 nM; `CCCn1c(=O)c2[nH]c(-c3ccc(OCC(=O)NN4C(=O)c5ccccc5C4=O)cc3)nc2n(CCC)c1=O` [Compound 21, 8-[4-[(Carboxymethyl)oxy]phenyl]-1,3-di-(n-propyl)xanthine N,N-Phthaloylhydrazide]: 26.3 ± 2.3 nM.

For the origin of these results see article PMC9196953 (Drug development research, 1999).
